Assay [1] deals with "acetic contortions" in mice. The experiment in a line: Analgetic activity on the model "acetic contortions". The format is in vivo, white mongrel mice. Here is the method: The tests were conducted on males of white mongrel mice weighing 22-24 grams. The specific pain response (“contortions”) were elicited by intraperitoneal administration to mice of 0.75% acetic acid solution. The following signs were taken into consideration: the number of seizure contractions of abdominal muscles accompanied by stretching the hind limbs and sagging the back. Analgetic effect was assessed by decrease in the number of contortions in animals in percent to the control for 15 minutes post administration of acetic acid. The technique of the tests is disclosed in Koster R., Anderson M., de Beer B.//Fed. Proc. 1959. V. 18. P. 412. Compounds under testing were administered intraperitoneally (using a probe) at a dose 10 μg/kg 60 minutes prior to injection of the acid. Diclofenac (10 mg/kg) was used as a reference drug. Analgetic effect was calculated according to the formula: […]
wherein Ck is the number of contortions in the control group,
Co is the number of contortions in the test group.

For assay [2], the system named is "hot plate" test in mice. The experiment in a line: Analgetic activity on the model "hot plate". The format is in vivo, white mongrel mice. The settings on record: for response vs control in vivo at 10 mg/kg / change in vivo at 10 mg/kg / change in vivo at 200 mg/kg / response vs control in vivo at 200 mg/kg: Mus musculus; for response vs control in vivo at 10 mg/kg: percent of background; for response vs control in vivo at 10 mg/kg / response vs control in vivo at 200 mg/kg: read-out: Latent time of NT (%); for change in vivo at 10 mg/kg / change in vivo at 200 mg/kg: read-out: Analgesia (%). Here is the method: The tests were conducted on males of white mongrel mice weighing 22-24 grams. The animals were individually placed on a hot plate (manufactured by the firm “Ugo Basile”), a temperature of which remained constant and was equal to 55° C. The following first manifestations of pain reaction were recorded: licking paws, jumping up prior to administration of a substance (background parameters) and 0.5, 1, 2, 3 and 4 hours post administration of a substance. Substances were administered […] (using a probe). A weighed amount of a substance was thoroughly mixed in 0.1 ml Tween 80 until a solution was obtained, then normal saline was added up to a volume of 0.5 ml. Average latent time of nociception threshold (NT) was calculated in every group. The results obtained were expressed in percent of the background values. Analgetic effect (in %) was calculated according to the formula: A−100%=X, wherein A is a background parameter; X is analgetic effect (in %)
A is (time 0.5 to 4 hours post administration×100%): background time
As reference drugs, Analgin (150 mg/kg), Paracetamol (200 mg/kg), Ketorol (10 mg/kg), were used.

The mark [3] stands for this setting: Mus musculus, ip, 0.25 h, dose 10 mg/kg (table title), read-out: Analgetic effect (%).
[4] abbreviates: Mus musculus, ip, 0.25 h, dose 10 mg/kg (table title), read-out: C, % to the control.
Setting [5] is: dose 10 mg/kg (table title), 60 minutes prior to acetic acid.
[6] abbreviates: 10 mg/kg, 30 minutes post administration.
The mark [7] stands for this setting: 10 mg/kg, 60 minutes post administration.
[8] abbreviates: 10 mg/kg, 120 minutes post administration.
The mark [9] stands for this setting: 0.5 h, Paracetamol 200 mg/kg, 30 minutes.
The mark [10] stands for this setting: 1 h, Paracetamol 200 mg/kg, 60 minutes.
[11] abbreviates: 2 h, Paracetamol 200 mg/kg, 120 minutes.

These results are taken from patent publication US8309766B2 (Obschestvo S. Organichennoi Otvetstvennostiyu …, priority 2005, dated 2012).

Read-outs that look alike come from different tables or passages of the source.

Take `O=C(Cc1ccc(O)cc1)NC(Cc1ccc(O)cc1)C(=O)O` (stereo not shown) [Compound II, p-hydroxyphenylacetyltyrosine]: the inhibition in vivo at 10 mg/kg in assay [1] (setting [3]) was 24.8%. The response vs control in vivo at 10 mg/kg in assay [1] (setting [4]) stood at 75.2%; in assay [2] (0.5 h, 10 mg/kg, 30 minutes) it was 176%; in assay [2] (1 h, 10 mg/kg, 60 minutes), 179%; in assay [2] (2 h, 10 mg/kg, 120 minutes), 215%. In assay [1] (setting [5]), the “C ± m (the number of contortions for 15 minutes)” value amounted to 24.2 ± 1.9. Besides, the results for the “latent time of nociception threshold, M ± m” value (from here on “latent time”) in assay [2] (setting [6]), in assay [2] (setting [7]) and in assay [2] (setting [8]) were 6.0 ± 0.6 s, 6.1 ± 0.8 s and 7.3 ± 0.6 s, respectively. Besides, the change in vivo at 10 mg/kg in assay [2] (0.5 h, 10 mg/kg, 30 minutes) was 76.5%; in assay [2] (1 h, 10 mg/kg, 60 minutes), 79.4%; in assay [2] (2 h, 10 mg/kg, 120 minutes) it was 115%.

On to `O=C(Cc1ccc(O)cc1)NC(Cc1ccccc1)C(=O)O` (stereo not shown) [Compound III, p-hydroxyphenylacetylphenylalanine], for which the inhibition in vivo at 10 mg/kg in assay [1] (setting [3]) came to 39.9%. The response vs control in vivo at 10 mg/kg in assay [1] (setting [4]) was found to be 60.2%; in assay [2] (0.5 h, 10 mg/kg, 30 minutes), 181%; in assay [2] (1 h, 10 mg/kg, 60 minutes), 160%; in assay [2] (2 h, 10 mg/kg, 120 minutes), 189%. The “C ± m (the number of contortions for 15 minutes)” value in assay [1] (setting [5]) stood at 19.4 ± 3.3. Moreover, the “latent time” value in assay [2] (setting [6]) stood at 6.7 ± 0.9 s; in assay [2] (setting [7]) it was 5.9 ± 0.8 s; in assay [2] (setting [8]) it was 7.0 ± 0.6 s. The change in vivo at 10 mg/kg in assay [2] (0.5 h, 10 mg/kg, 30 minutes) was determined as 81%; in assay [2] (1 h, 10 mg/kg, 60 minutes), 59.5%; in assay [2] (2 h, 10 mg/kg, 120 minutes) it was 89.2%.

As for `COC(=O)C(Cc1ccc(O)cc1)NC(=O)Cc1ccc(O)cc1` (stereo not shown) [Compound IV, p-hydroxyphenylacetyltyrosine methyl ester], the inhibition in vivo at 10 mg/kg in assay [1] (setting [3]) was found to be 22.1%. Moreover, the response vs control in vivo at 10 mg/kg is 77.9% in assay [1] (setting [4]); 104% in assay [2] (0.5 h, 10 mg/kg, 30 minutes); 110% in assay [2] (1 h, 10 mg/kg, 60 minutes); 118% in assay [2] (2 h, 10 mg/kg, 120 minutes). Moreover, the “C ± m (the number of contortions for 15 minutes)” value in assay [1] (setting [5]) is listed as 20.8 ± 1.9. In addition, the figures for the “latent time” value in assay [2] (setting [6]), in assay [2] (setting [7]) and in assay [2] (setting [8]) were 5.24 ± 0.88 s, 5.54 ± 0.32 s and 5.93 ± 0.59 s, respectively. Besides, the change in vivo at 10 mg/kg worked out at 4.2% in assay [2] (0.5 h, 10 mg/kg, 30 minutes); 10.1% in assay [2] (1 h, 10 mg/kg, 60 minutes); 17.9% in assay [2] (2 h, 10 mg/kg, 120 minutes).

Turning to `COC(=O)C(Cc1ccccc1)NC(=O)Cc1ccc(O)cc1` (stereo not shown) [Compound V, p-hydroxyphenylacetylphenylalanine methyl ester], the inhibition in vivo at 10 mg/kg in assay [1] (setting [3]) turned out to be 39.3%. For the same compound, the response vs control in vivo at 10 mg/kg amounted to 60.7% in assay [1] (setting [4]); 130% in assay [2] (0.5 h, 10 mg/kg, 30 minutes); 158% in assay [2] (1 h, 10 mg/kg, 60 minutes); 176% in assay [2] (2 h, 10 mg/kg, 120 minutes). In addition, in assay [1] (setting [5]), the “C ± m (the number of contortions for 15 minutes)” value came out at 16.2 ± 2.6. Moreover, the entries for the “latent time” value in assay [2] (setting [6]), in assay [2] (setting [7]) and in assay [2] (setting [8]) were 4.85 ± 0.39 s, 5.9 ± 0.81 s and 6.58 ± 0.72 s, respectively. The change in vivo at 10 mg/kg was determined as 29.7% in assay [2] (0.5 h, 10 mg/kg, 30 minutes); 57.8% in assay [2] (1 h, 10 mg/kg, 60 minutes); 75.9% in assay [2] (2 h, 10 mg/kg, 120 minutes).

For `O=C(Cc1ccccc1)NCCc1ccc(O)cc1` [Compound VI, phenylacetyltyramine], the inhibition in vivo at 10 mg/kg in assay [1] (setting [3]) amounted to 25.5%. Moreover, the response vs control in vivo at 10 mg/kg in assay [1] (setting [4]) was determined as 74.5%; in assay [2] (0.5 h, 10 mg/kg, 30 minutes) it was 132%; in assay [2] (1 h, 10 mg/kg, 60 minutes), 141%; in assay [2] (2 h, 10 mg/kg, 120 minutes), 115%. Further, in assay [1] (setting [5]), the “C ± m (the number of contortions for 15 minutes)” value is given as 21.1 ± 1.8. For the same compound, the “latent time” value was found to be 7.8 ± 0.8 s in assay [2] (setting [6]), 8.3 ± 1.0 s in assay [2] (setting [7]) and 6.8 ± 0.5 s in assay [2] (setting [8]). Further, the change in vivo at 10 mg/kg came to 32.2% in assay [2] (0.5 h, 10 mg/kg, 30 minutes); 40.7% in assay [2] (1 h, 10 mg/kg, 60 minutes); 15.3% in assay [2] (2 h, 10 mg/kg, 120 minutes).

Consider `O=C(Cc1ccc(O)cc1)NCCc1ccc(O)cc1` [Compound VII, p-hydroxyphenylacetyltyramine], for which the “latent time” value was 6.9 ± 0.72 s in assay [2] (setting [7]) and 8.2 ± 0.94 s in assay [2] (setting [8]). The response vs control in vivo at 10 mg/kg in assay [2] (1 h, 10 mg/kg, 60 minutes) came to 134%; in assay [2] (2 h, 10 mg/kg, 120 minutes) it was 159%. For the same compound, the change in vivo at 10 mg/kg worked out at 34.5% in assay [2] (1 h, 10 mg/kg, 60 minutes) and 58.9% in assay [2] (2 h, 10 mg/kg, 120 minutes).

Consider `O=C(CCc1ccccc1)NCCc1ccccc1` [Compound XI, 3-phenylpropionylphenylethylamine], for which the inhibition in vivo at 10 mg/kg in assay [1] (setting [3]) was 38.2%. Further, the response vs control in vivo at 10 mg/kg in assay [1] (setting [4]) amounted to 61.8%; in assay [2] (0.5 h, 10 mg/kg, 30 minutes), 143%; in assay [2] (1 h, 10 mg/kg, 60 minutes) it was 174%; in assay [2] (3 h, 10 mg/kg, 180 minutes) it was 141%; in assay [2] (4 h, 10 mg/kg, 240 minutes), 136%. The “C ± m (the number of contortions for 15 minutes)” value in assay [1] (setting [5]) is recorded as 21.2 ± 2.5. For the same compound, the “latent time” value in assay [2] (setting [6]) was determined as 5.35 ± 0.98 s; in assay [2] (setting [7]), 6.49 ± 1.1 s; in assay [2] (10 mg/kg, 180 minutes post administration), 6.27 ± 0.33 s; in assay [2] (10 mg/kg, 240 minutes post administration), 4.07 ± 0.26 s. The change in vivo at 10 mg/kg worked out at 43.4% in assay [2] (0.5 h, 10 mg/kg, 30 minutes); 74% in assay [2] (1 h, 10 mg/kg, 60 minutes); 41.3% in assay [2] (3 h, 10 mg/kg, 180 minutes); 35.9% in assay [2] (4 h, 10 mg/kg, 240 minutes).

As for `O=C(O)Cc1ccccc1Nc1c(Cl)cccc1Cl` [Diclofenac, reference compound], the “C ± m (the number of contortions for 15 minutes)” value in assay [1] (Diclofenac 10 μg/kg [sic]) came to 12.9 ± 2.13.

Take `CC(=O)Nc1ccc(O)cc1` [Paracetamol, reference compound]: the change in vivo at 200 mg/kg in assay [2] (setting [9]) is 139%; in assay [2] (setting [10]), 58%; in assay [2] (setting [11]), 92%. Further, the response vs control in vivo at 200 mg/kg was 239% in assay [2] (setting [9]), 158% in assay [2] (setting [10]) and 192% in assay [2] (setting [11]). The “latent time” value in assay [2] (Paracetamol 200 mg/kg, 30 minutes) was 9.44 ± 1.3 s; in assay [2] (Paracetamol 200 mg/kg, 60 minutes), 6.24 ± 0.82 s; in assay [2] (Paracetamol 200 mg/kg, 120 minutes), 7.6 ± 1.15 s.

In the case of `O=C(O)Cc1ccccc1Nc1c(Cl)cccc1Cl` [Voltaren, reference compound], the inhibition in vivo at 0.008 mg/kg in assay [1] (Mus musculus, ip, 0.25 h, Voltaren 8 μg/kg, read-out: Analgetic effect (%)) was 44.5%. The response vs control in vivo at 0.008 mg/kg in assay [1] (Mus musculus, ip, 0.25 h, Voltaren 8 μg/kg, read-out: C, % to the control) was 55.5%. Besides, the “C ± m (the number of contortions for 15 minutes)” value in assay [1] (Voltaren 8 μg/kg) is recorded as 15.8 ± 2.6.
